# According to US20250186474A1 (CHINA CHEMICAL & PHARMACEUTICAL CO., LTD., priority 2023, published 2025):
# Key:
# [1] = Stress test of compositions with different EIDD-1931 concentrations (60° C., 7 and 14 days); format: physicochemical; conditions: API
# Method: Therefore, the concentration of EIDD-1931 was adjusted, and another stress test was conducted to evaluate how the resulting drugs degrade in 7 and 14 days.
# [2] = Solubility / precipitation in the pharmaceutical solution composition; format: physicochemical; conditions: drug prepared with 20 mg/ml
structure (smiles),measurement,setting,value
"O=c1nc(NO)ccn1[C@@H]1O[C@H](CO)[C@@H](O)[C@H]1O [EIDD-1931, β-D-N4-hydroxycytidine]",Single-impurity percentage,[1],0.01/0.01%
same,total-impurity percentage,[1],0.01/0.01%
same,Theoretical value,[1]; impurity test,93.25%
same,precipitation,[2],had precipitation issues
